# Patent US8673906B2, “Chromenone derivatives” (AstraZeneca AB, priority 2010, dated 2014)
# Target: PI3Kβ (Homo sapiens (Human), UniProt P42338)
# Assay: In vitro enzyme inhibition assay (Kinase Glo based enzyme activity assay)
# Assay type: biochemical
# Conditions: Test (a), human recombinant enzyme; read-out: PI3Kβ inhibition, IC50
# Experimental: (a) In Vitro Enzyme Inhibition Assay
# The inhibition of PI3Kβ, PI3Kα, PI3Kγ and PI3Kδ was evaluated in a Kinase Glo based enzyme activity assay using human recombinant enzymes. The assay measures depletion of ATP after incubation with enzyme, PIP2 and ATP plus compound. ATP at the end of the reaction is detected by addition of Kinase Glo reagent, in this the Ultra Glo™ luciferase (Promega) uses the ATP as a substrate to catalyze the mono-oxygenation of luciferin and the generation of light. A direct relationship exists between the luminescence measured with the Kinase-Glo Plus Reagent and the amount of ATP remaining in a completed kinase reaction and luminescence is inversely related to kinase activity. Twelve different compound concentrations were tested and raw data from the inhibition of PI3 Kb, PI3Kα, PI3Kγ and PI3Kδ was plotted versus inhibitor concentration.
# Compounds in 100% DMSO were added to assay plates by acoustic dispensing. PI3Kβ was added in a Tris buffer (50 mM Tris pH7.4, 0.05% CHAPS, 2.1 mM DTT, and 10 mM MgCl2) and allowed to preincubate with compound for 20 minutes prior to addition of substrate solution containing PIP2 and ATP. The enzyme reaction was stopped after 80 minutes by the addition of Kinase Glo detection solution. Plates were left for 30 minutes at room temperature then read on a Pherastar Instrument (Luminescence ATP 384 program) setting gain on max well. The final concentration of DMSO, ATP and PIP2 in the assay were, 1%, 80 μM, and 80 μM respectively.
# IC50 values were calculated using a log curve fitting to a non-linear regression package, fitting raw data to inhibitor concentration.
# PI3Kβ, sequence (P42338 whole entry): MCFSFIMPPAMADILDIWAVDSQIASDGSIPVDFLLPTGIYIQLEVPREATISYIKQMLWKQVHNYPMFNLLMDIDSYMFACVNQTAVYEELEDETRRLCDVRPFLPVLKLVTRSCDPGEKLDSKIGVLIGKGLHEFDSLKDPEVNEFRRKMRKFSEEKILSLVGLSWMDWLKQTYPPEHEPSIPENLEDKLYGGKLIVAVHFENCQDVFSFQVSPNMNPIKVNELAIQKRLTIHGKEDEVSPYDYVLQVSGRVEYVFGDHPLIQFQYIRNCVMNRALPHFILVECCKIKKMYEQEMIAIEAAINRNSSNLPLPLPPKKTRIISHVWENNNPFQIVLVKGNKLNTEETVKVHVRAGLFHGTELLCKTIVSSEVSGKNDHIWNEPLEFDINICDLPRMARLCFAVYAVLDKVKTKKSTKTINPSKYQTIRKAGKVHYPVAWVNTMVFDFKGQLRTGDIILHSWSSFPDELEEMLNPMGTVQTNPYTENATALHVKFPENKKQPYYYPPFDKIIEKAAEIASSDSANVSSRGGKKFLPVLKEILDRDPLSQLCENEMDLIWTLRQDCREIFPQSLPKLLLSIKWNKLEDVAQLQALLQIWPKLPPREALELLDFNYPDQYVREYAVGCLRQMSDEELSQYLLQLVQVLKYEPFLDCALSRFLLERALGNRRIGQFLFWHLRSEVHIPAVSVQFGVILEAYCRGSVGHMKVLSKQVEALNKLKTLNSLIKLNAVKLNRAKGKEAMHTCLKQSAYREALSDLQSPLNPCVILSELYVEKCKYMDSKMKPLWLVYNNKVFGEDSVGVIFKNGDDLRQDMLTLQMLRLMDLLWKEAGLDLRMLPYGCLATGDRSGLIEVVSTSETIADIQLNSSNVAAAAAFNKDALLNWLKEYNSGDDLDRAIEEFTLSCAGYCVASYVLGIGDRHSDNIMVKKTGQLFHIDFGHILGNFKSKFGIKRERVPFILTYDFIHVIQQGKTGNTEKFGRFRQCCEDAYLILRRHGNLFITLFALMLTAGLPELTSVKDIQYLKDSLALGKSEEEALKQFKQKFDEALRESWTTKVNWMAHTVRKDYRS
# PI3Kβ, sequence (P27986 whole entry partner): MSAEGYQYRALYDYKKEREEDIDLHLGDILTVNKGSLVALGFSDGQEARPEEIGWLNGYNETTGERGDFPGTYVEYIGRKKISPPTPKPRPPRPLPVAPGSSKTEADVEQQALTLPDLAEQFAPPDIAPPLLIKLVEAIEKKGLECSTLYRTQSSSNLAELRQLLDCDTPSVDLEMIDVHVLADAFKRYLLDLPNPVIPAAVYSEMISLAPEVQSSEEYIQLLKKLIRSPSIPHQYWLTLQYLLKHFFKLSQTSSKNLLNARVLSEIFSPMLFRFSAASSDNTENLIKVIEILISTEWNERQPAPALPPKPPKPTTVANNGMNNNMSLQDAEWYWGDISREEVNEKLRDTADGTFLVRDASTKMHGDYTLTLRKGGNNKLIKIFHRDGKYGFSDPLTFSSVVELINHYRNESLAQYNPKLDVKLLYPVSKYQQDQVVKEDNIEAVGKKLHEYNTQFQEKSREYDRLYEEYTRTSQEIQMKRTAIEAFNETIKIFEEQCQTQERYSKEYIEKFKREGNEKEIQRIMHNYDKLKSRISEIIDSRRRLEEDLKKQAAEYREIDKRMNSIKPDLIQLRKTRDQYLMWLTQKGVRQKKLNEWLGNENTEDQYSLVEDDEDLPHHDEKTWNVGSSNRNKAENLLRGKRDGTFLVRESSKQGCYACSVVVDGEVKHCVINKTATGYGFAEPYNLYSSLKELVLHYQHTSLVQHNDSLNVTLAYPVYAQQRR
row,SMILES,IC50 [nM]
1,"CC(Nc1c(F)ccc(F)c1F)c1cc(C(=O)N(C)C)cc2c(=O)cc(N3CCOCC3)oc12 (stereo not shown) [Example 3.27, N,N-dimethyl-2-morpholino-4-oxo-8-(1-(2,3,6-trifluorophenylamino)ethyl)-4H-chromene-6-carboxamide]",9
2,"Cc1c(C#N)cccc1NC(C)c1cc(C(=O)N(C)C)cc2c(=O)cc(N3CCOCC3)oc12 (stereo not shown) [Example 3.29, 8-(1-(3-cyano-2-methylphenylamino)ethyl)-N,N-dimethyl-2-morpholino-4-oxo-4H-chromene-6-carboxamide]",5
3,"CC(Nc1c(F)ccc(Cl)c1F)c1cc(C(=O)N(C)C)cc2c(=O)cc(N3CCOCC3)oc12 (stereo not shown) [Example 3.32, 8-(1-(3-chloro-2,6-difluorophenylamino)ethyl)-N,N-dimethyl-2-morpholino-4-oxo-4H-chromene-6-carboxamide]",8
4,"CC(c1cc(C(=O)N(C)C)cc2c(=O)cc(N3CCOCC3)oc12)N(C)c1cc(F)c(F)c(F)c1 (stereo not shown) [Example 3.38, N,N-dimethyl-8-(1-(methyl(3,4,5-trifluorophenyl)amino)ethyl)-2-morpholino-4-oxo-4H-chromene-6-carboxamide]",17
5,"CC(c1cc(C(=O)N(C)C)cc2c(=O)cc(N3CCOCC3)oc12)N(C)c1cc(F)cc(F)c1F (stereo not shown) [Example 3.39, N,N-dimethyl-8-(1-(methyl(2,3,5-trifluorophenyl)amino)ethyl)-2-morpholino-4-oxo-4H-chromene-6-carboxamide]",21
6,"CC(c1cc(C(=O)N(C)C)cc2c(=O)cc(N3CCOCC3)oc12)N(C)c1ccccc1 (stereo not shown) [Example 3.40, N,N-dimethyl-8-(1-(methyl(phenyl)amino)ethyl)-2-morpholino-4-oxo-4H-chromene-6-carboxamide]",43
7,"CC(Nc1cc(F)cc(F)c1)c1cc(C(=O)N2CCN(C)CC2)cc2c(=O)cc(N3CCOCC3)oc12 (stereo not shown) [Example 4.03, 8-(1-(3,5-difluorophenylamino)ethyl)-6-(4-methylpiperazine-1-carbonyl)-2-morpholino-4H-chromen-4-one]",4
8,"CC(Nc1cc(F)cc(F)c1)c1cc(C(=O)N2CCNCC2)cc2c(=O)cc(N3CCOCC3)oc12 (stereo not shown) [Example 4.04, 8-(1-(3,5-difluorophenylamino)ethyl)-2-morpholino-6-(piperazine-1-carbonyl)-4H-chromen-4-one]",4
9,"CC(Nc1cc(F)cc(F)c1)c1cc(C(=O)N2CCSCC2)cc2c(=O)cc(N3CCOCC3)oc12 (stereo not shown) [Example 4.05, 8-(1-(3,5-difluorophenylamino)ethyl)-2-morpholino-6-(thiomorpholine-4-carbonyl)-4H-chromen-4-one]",8
10,"CC(Nc1cc(F)cc(F)c1)c1cc(C(=O)N2CCCCCC2)cc2c(=O)cc(N3CCOCC3)oc12 (stereo not shown) [Example 4.06, 6-(azepane-1-carbonyl)-8-(1-(3,5-difluorophenylamino)ethyl)-2-morpholino-4H-chromen-4-one]",4
11,"CC(Nc1cc(F)cc(F)c1)c1cc(C(=O)N2CCC(O)CC2)cc2c(=O)cc(N3CCOCC3)oc12 (stereo not shown) [Example 4.09, 8-(1-(3,5-difluorophenylamino)ethyl)-6-(4-hydroxypiperidine-1-carbonyl)-2-morpholino-4H-chromen-4-one]",3
12,"CC(Nc1cc(F)cc(F)c1)c1cc(C(=O)N2CCCCC2)cc2c(=O)cc(N3CCOCC3)oc12 (stereo not shown) [Example 4.10, 8-(1-(3,5-difluorophenylamino)ethyl)-2-morpholino-6-(piperidine-1-carbonyl)-4H-chromen-4-one]",5
13,"CC(Nc1cc(F)cc(F)c1)c1cc(C(=O)N2CC(O)C2)cc2c(=O)cc(N3CCOCC3)oc12 (stereo not shown) [Example 4.12, 8-(1-(3,5-difluorophenylamino)ethyl)-6-(3-hydroxyazetidine-1-carbonyl)-2-morpholino-4H-chromen-4-one]",4
14,"CC(Nc1cc(F)cc(F)c1)c1cc(C(=O)N2CC(F)C2)cc2c(=O)cc(N3CCOCC3)oc12 (stereo not shown) [Example 4.13, 8-(1-(3,5-difluorophenylamino)ethyl)-6-(3-fluoroazetidine-1-carbonyl)-2-morpholino-4H-chromen-4-one]",9

# The next lines start with the values.
row,IC50 [nM],SMILES
1,4,"CC(Nc1cc(F)ccc1Cl)c1cc(C(=O)N(C)C)cc2c(=O)cc(N3CCOCC3)oc12 (stereo not shown) [Example 3.26, 8-(1-(2-chloro-5-fluorophenylamino)ethyl)-N,N-dimethyl-2-morpholino-4-oxo-4H-chromene-6-carboxamide]"
2,4,"Cc1ccc(Cl)cc1NC(C)c1cc(C(=O)N(C)C)cc2c(=O)cc(N3CCOCC3)oc12 (stereo not shown) [Example 3.28, 8-(1-(5-chloro-2-methylphenylamino)ethyl)-N,N-dimethyl-2-morpholino-4-oxo-4H-chromene-6-carboxamide]"
3,4,"COc1cc(F)cc(NC(C)c2cc(C(=O)N(C)C)cc3c(=O)cc(N4CCOCC4)oc23)c1 (stereo not shown) [Example 3.30, 8-(1-(3-fluoro-5-methoxyphenylamino)ethyl)-N,N-dimethyl-2-morpholino-4-oxo-4H-chromene-6-carboxamide]"
4,6,"COc1c(F)cccc1NC(C)c1cc(C(=O)N(C)C)cc2c(=O)cc(N3CCOCC3)oc12 (stereo not shown) [Example 3.31, 8-(1-(3-fluoro-2-methoxyphenylamino)ethyl)-N,N-dimethyl-2-morpholino-4-oxo-4H-chromene-6-carboxamide]"
5,5,"CC(Nc1cc(Cl)cc(Cl)c1)c1cc(C(=O)N(C)C)cc2c(=O)cc(N3CCOCC3)oc12 (stereo not shown) [Example 3.33, 8-(1-(3,5-dichlorophenylamino)ethyl)-N,N-dimethyl-2-morpholino-4-oxo-4H-chromene-6-carboxamide]"
6,4,"C#Cc1cc(F)cc(NC(C)c2cc(C(=O)N(C)C)cc3c(=O)cc(N4CCOCC4)oc23)c1 (stereo not shown) [Example 3.34, 8-(1-(3-ethynyl-5-fluorophenylamino)ethyl)-N,N-dimethyl-2-morpholino-4-oxo-4H-chromene-6-carboxamide]"
7,31,"CC(Nc1cc(F)ccc1C#N)c1cc(C(=O)N(C)C)cc2c(=O)cc(N3CCOCC3)oc12 (stereo not shown) [Example 3.35, 8-(1-(2-cyano-5-fluorophenylamino)ethyl)-N,N-dimethyl-2-morpholino-4-oxo-4H-chromene-6-carboxamide]"
8,24,"CC(Nc1cccc(F)c1C#N)c1cc(C(=O)N(C)C)cc2c(=O)cc(N3CCOCC3)oc12 (stereo not shown) [Example 3.36, 8-(1-(2-cyano-3-fluorophenylamino)ethyl)-N,N-dimethyl-2-morpholino-4-oxo-4H-chromene-6-carboxamide]"
9,12,"CC(c1cc(C(=O)N(C)C)cc2c(=O)cc(N3CCOCC3)oc12)N(C)c1cc(F)cc(Cl)c1 (stereo not shown) [Example 3.37, 8-(1-((3-chloro-5-fluorophenyl)(methyl)amino)ethyl)-N,N-dimethyl-2-morpholino-4-oxo-4H-chromene-6-carboxamide]"
10,14,"C#Cc1cc(F)cc(N(C)C(C)c2cc(C(=O)N(C)C)cc3c(=O)cc(N4CCOCC4)oc23)c1 (stereo not shown) [Example 3.41, 8-(1-((3-ethynyl-5-fluorophenyl)(methyl)amino)ethyl)-N,N-dimethyl-2-morpholino-4-oxo-4H-chromene-6-carboxamide]"
11,4,"CCN(CC)C(=O)c1cc(C(C)Nc2cc(F)cc(F)c2)c2oc(N3CCOCC3)cc(=O)c2c1 (stereo not shown) [Example 4.01, 8-(1-(3,5-difluorophenylamino)ethyl)-N,N-diethyl-2-morpholino-4-oxo-4H-chromene-6-carboxamide]"
12,4,"CC(Nc1cc(F)cc(F)c1)c1cc(C(=O)N(C)CCO)cc2c(=O)cc(N3CCOCC3)oc12 (stereo not shown) [Example 4.07, 8-(1-(3,5-difluorophenylamino)ethyl)-N-(2-hydroxyethyl)-N-methyl-2-morpholino-4-oxo-4H-chromene-6-carboxamide]"
13,2,"CCN(C)C(=O)c1cc(C(C)Nc2cc(F)cc(F)c2)c2oc(N3CCOCC3)cc(=O)c2c1 (stereo not shown) [Example 4.11, 8-(1-(3,5-difluorophenylamino)ethyl)-N-ethyl-N-methyl-2-morpholino-4-oxo-4H-chromene-6-carboxamide]"
14,4,"CC(Nc1cc(F)cc(F)c1)c1cc(C(=O)NCCO)cc2c(=O)cc(N3CCOCC3)oc12 (stereo not shown) [Example 4.14, 8-(1-(3,5-difluorophenylamino)ethyl)-N-(2-hydroxyethyl)-2-morpholino-4-oxo-4H-chromene-6-carboxamide]"
15,4,"COCCNC(=O)c1cc(C(C)Nc2cc(F)cc(F)c2)c2oc(N3CCOCC3)cc(=O)c2c1 (stereo not shown) [Example 4.15, 8-(1-(3,5-difluorophenylamino)ethyl)-N-(2-methoxyethyl)-2-morpholino-4-oxo-4H-chromene-6-carboxamide]"
16,9,"CCCNC(=O)c1cc(C(C)Nc2cc(F)cc(F)c2)c2oc(N3CCOCC3)cc(=O)c2c1 (stereo not shown) [Example 4.16, 8-(1-(3,5-difluorophenylamino)ethyl)-2-morpholino-4-oxo-N-propyl-4H-chromene-6-carboxamide]"
17,5,"CCNC(=O)c1cc(C(C)Nc2cc(F)cc(F)c2)c2oc(N3CCOCC3)cc(=O)c2c1 (stereo not shown) [Example 4.17, 8-(1-(3,5-difluorophenylamino)ethyl)-N-ethyl-2-morpholino-4-oxo-4H-chromene-6-carboxamide]"
